Data taken from patent publication US11518981B2, “Methods of enhancing engraftment activity of hematopoietic stem cells” (CHILDREN'S HOSPITAL MEDICAL CENTER, priority 2017, dated 2022).

Legend:
γH2AX = assay: DNA damage response (γH2AX, 53BP1) by immunofluorescence and flow cytometry; type: cell-based, human
Procedure: For EdU incorporation assay, cells were incubated with 10 μM EdU throughout the culture period and the CLICK-IT® Plus EdU Pacific Blue Flow Cytometry Assay Kit (ThermoFisher Scientific C10636) was used for staining. […] Samples were run through a FACSCANTOTM, FORTESSATM, or LSR 2 flow cytometers (BD Biosciences), and the data was analyzed by […] software (BD). […] II cell sorter. FACS sorted CD34+38-90+ cells were fixed in 2% paraformaldehyde and permeabilized using 0.1% […] polyether alcohol, Sigma-Aldrich). […] Cells were counterstained and mounted with […]® antifade mounting medium with DAPI (H-1200 Vector Laboratories). Images were obtained using a Nikon 90i upright microscope.

[1] = system: human MPB derived CD34^+ cells; assay: long term repopulating potential (LTRP) in secondary transplanted (2 T) NSG mice; type: in vivo; conditions: CD34^+ cells cultured 36-42 h and 72-96 h; 6 weeks post 2 T
Text: NOD.Cg-Prkdcscid Il2rgtm1Wjl/SzJ (NSG) mice were purchased from The Jackson Laboratory (Bar Harbor, Me.). All animals were bred and maintained in a specific pathogen-free environment and all experiments were approved by the Institutional Animal Care and Use (IACUC) Committee. Male and female NSG mice aged 8 to 14 weeks old were fed doxycycline chow (TestDiet; Modified Prolab RMH-1500 with 0.0625% doxycycline) a week prior to, during and for 2 weeks post irradiation. Human engraftment was analyzed in bone marrow (BM), via BM aspirates performed at 6 and 12 weeks from left and right femurs. After sacrifice at 24 weeks, marrow from all of the primary mice (1 T) was harvested. Peripheral blood analysis was also performed in some experiments. Secondary transplants (2 T) were performed after mouse CD45^+ cells were depleted from BM harvested from each 1 T mouse separately, using Biotin Rat Anti-Mouse CD45 (BD Biosciences 553078) and Streptavidin Particles Plus-DM (BD Biosciences 557812) and injected into one irradiated (280 cGy) secondary NSG mouse. For calculating competitive repopulating units (CRU) from limiting dilution transplantation, the L-CALC^TM software (Stem Cell Technologies) was used. All of the mice used for this study were randomly assigned to a treatment group. No animals were excluded from the analysis.

CD34^+ cells = assay: total CD34^+ cell number and viability (trypan blue); type: cell-based, human; conditions: ex vivo culture with/without p38i
Procedure: Freshly isolated CD34^+ cells were used, wherever possible, and especially for 0 h controls. In some experiments cryopreserved CD34^+ cells were thawed for 4 hrs in IMDM containing cytokines, then washed and used for experiments. CD34^+ cells were transduced in X-VIVO 10™ (Lonza) medium supplemented with 2% human serum albumin (Baxter), recombinant human Flt-3 ligand (Flt3-L; 200 ng/mL), stem cell factor (SCF; 300 ng/mL), thrombopoietin (TPO; 100 ng/mL) (all cytokines obtained from PeproTech), and penicillin-streptomycin (ThermoFisher Scientific) on non-tissue culture treated plates coated with retronectin (4 μg/cm2, CH-296, Takara Bio Inc.). For LV transduction, CD34^+ cells (2-5×10^6/mL) were pre-stimulated for 4-8 hours and transduced twice with lentivirus vector (LV) maintaining the vector concentration between 5×10^7 to 1×10^8 infectious unit (IU) per mL of media volume, 12-14 hours apart. Cells were kept in culture for a total of either 18-24 hours, 36-42 hours or 72-96 hours. For RV transduction, human CD34^+ cells were pre-stimulated for ˜2 days (42-48 hours) hours at a cell density of 3×10^5 cells/ml. Retronectin coated tissue culture flasks or plates were preloaded at room temperature with GALV pseudotyped RV twice for one hour each. The vector supernatant was removed and the cells were loaded into the RV loaded retronectin coated flasks. […]

Cc1ccc(-n2nc(C(C)(C)C)cc2NC(=O)Nc2ccc(OCCN3CCOCC3)c3ccccc23)cc1 [p38i, 1-[5-tert-butyl-2-(4-methylphenyl)pyrazol-3-yl]-3-[4-(2-morpholin-4-ylethoxy)naphthalen-1-yl]urea]
γH2AX levels in the transduced HSCs (γH2AX; 72 h, RV transduced cycling HSCs): significantly reduced
percentage of γH2AX^+ cells (γH2AX; flow cytometry, 36-42 h and 72-96 h groups): significantly reduced
γH2AX MFI and number of γH2AX positive HSC (γH2AX; flow cytometry, 24 h): returned to levels seen in unmanipulated HSCs
LTRP in 2 T mice [1]: restored the LTRP in 2 T mice to levels seen with unmanipulated HSPCs
total number of CD34^+ cells, or viability in vitro (CD34^+ cells): no effect
